Results published in the supplement of paper PMC10307832.

How the values were obtained:
Assay in all cases: relative viability (nuclei count vs DMSO), 5 days (fraction); higher = more cells survive
[1] = tested on: SW 1573
Summary of the method: (§1)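 Dosing by pin tool came one day after lung cancer cell lines were seeded in 1536-well plates, using either one drug or a fixed anchor-drug dose plus five library-drug doses (not always all listed) in √10 steps. After 5 days, nuclei were counted on 4× images. Relative viability is treated-well nuclei count divided by vehicle-well nuclei count, and values are medians of duplicate plates.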

[2] = tested on: NCI-H1793
Summary of the method: as §1

[3] = tested on: 201T
Summary of the method: as §1

[4] = tested on: NCI-H596
Summary of the method: as §1

[5] = tested on: EPLC-272H
Summary of the method: as §1

[6] = tested on: NCI-H2087
Summary of the method: as §1

[7] = tested on: COR-L23
Summary of the method: as §1

[8] = tested on: NCI-H460
Summary of the method: as §1

[9] = tested on: HCC-827
Summary of the method: as §1

[10] = tested on: LK-2
Summary of the method: as §1

[11] = tested on: BEN
Summary of the method: as §1

[12] = tested on: NCI-H1651
Summary of the method: as §1

[13] = tested on: EMC-BAC-2
Summary of the method: as §1

[14] = tested on: HCC-44
Summary of the method: as §1

[15] = tested on: NCI-H1915
Summary of the method: as §1

[16] = tested on: NCI-H2126
Summary of the method: as §1

[17] = tested on: NCI-H2347
Summary of the method: as §1

[18] = tested on: LXF-289
Summary of the method: as §1

[19] = tested on: NCI-H1650
Summary of the method: as §1

[20] = tested on: A-427
Summary of the method: as §1

[21] = tested on: EKVX
Summary of the method: as §1

O=c1[nH]c2ccccc2n1C1CCN(CCCC(c2ccc(F)cc2)c2ccc(F)cc2)CC1 [Pimozide] + CC1(C)CCC(c2ccc(Cl)cc2)=C(CN2CCN(c3ccc(C(=O)NS(=O)(=O)c4ccc(N[C@H](CCN5CCOCC5)CSc5ccccc5)c(S(=O)(=O)C(F)(F)F)c4)cc3)CC2)C1 [Navitoclax] (partner 0.5 µM)
relative viability ([1]; first compound 0.08 µM): 0.92 | relative viability ([1]; first compound 0.253 µM): 1.04 | relative viability ([1]; first compound 0.8 µM): 0.799 | relative viability ([1]; first compound 2.53 µM): 1.02 | relative viability ([1]; first compound 8 µM): 0.796 | relative viability ([2]; first compound 0.08 µM): 0.532 | relative viability ([2]; first compound 0.253 µM): 0.485 | relative viability ([2]; first compound 0.8 µM): 0.389 | relative viability ([2]; first compound 2.53 µM): 0.48 | relative viability ([2]; first compound 8 µM): 0.494 | relative viability ([3]; first compound 0.08 µM): 1.19 | relative viability ([3]; first compound 0.253 µM): 1.25 | relative viability ([3]; first compound 0.8 µM): 1.19 | relative viability ([3]; first compound 2.53 µM): 1.18 | relative viability ([3]; first compound 8 µM): 1.15 | relative viability ([4]; first compound 0.08 µM): 0.92 | relative viability ([4]; first compound 0.253 µM): 0.963 | relative viability ([4]; first compound 0.8 µM): 0.94 | relative viability ([4]; first compound 2.53 µM): 0.677 | relative viability ([4]; first compound 8 µM): 0.9 | relative viability ([5]; first compound 0.08 µM): 0.979 | relative viability ([5]; first compound 0.253 µM): 1.16 | relative viability ([5]; first compound 0.8 µM): 1.13 | relative viability ([5]; first compound 2.53 µM): 1.03 | relative viability ([5]; first compound 8 µM): 0.967 | relative viability ([6]; first compound 0.08 µM): 0.972 | relative viability ([6]; first compound 0.253 µM): 0.98 | relative viability ([6]; first compound 0.8 µM): 0.878 | relative viability ([6]; first compound 2.53 µM): 0.997 | relative viability ([6]; first compound 8 µM): 0.931 | relative viability ([7]; first compound 0.08 µM): 1.02 | relative viability ([7]; first compound 0.253 µM): 0.923 | relative viability ([7]; first compound 0.8 µM): 0.913 | relative viability ([7]; first compound 2.53 µM): 1.14 | relative viability ([7]; first compound 8 µM): 0.933 | relative viability ([8]; first compound 0.08 µM): 1.19 | relative viability ([8]; first compound 0.253 µM): 1.12 | relative viability ([8]; first compound 0.8 µM): 1.06 | relative viability ([8]; first compound 2.53 µM): 1.06 | relative viability ([8]; first compound 8 µM): 0.957 | relative viability ([9]; first compound 0.253 µM): 1.03 | relative viability ([9]; first compound 0.8 µM): 0.897 | relative viability ([9]; first compound 2.53 µM): 0.999 | relative viability ([9]; first compound 8 µM): 0.981 | relative viability ([10]; first compound 0.08 µM): 0.818 | relative viability ([10]; first compound 0.253 µM): 0.724 | relative viability ([10]; first compound 0.8 µM): 0.811 | relative viability ([10]; first compound 2.53 µM): 0.721 | relative viability ([10]; first compound 8 µM): 1.05 | relative viability ([11]; first compound 0.08 µM): 0.0678 | relative viability ([11]; first compound 0.253 µM): 0.06 | relative viability ([11]; first compound 0.8 µM): 0.0809 | relative viability ([11]; first compound 2.53 µM): 0.0665 | relative viability ([11]; first compound 8 µM): 0.0584 | relative viability ([12]; first compound 0.08 µM): 0.953 | relative viability ([12]; first compound 0.253 µM): 1.06 | relative viability ([12]; first compound 0.8 µM): 1.07 | relative viability ([12]; first compound 2.53 µM): 1.11 | relative viability ([12]; first compound 8 µM): 0.992 | relative viability ([13]; first compound 0.08 µM): 1.09 | relative viability ([13]; first compound 0.253 µM): 1.11 | relative viability ([13]; first compound 0.8 µM): 1.05 | relative viability ([13]; first compound 2.53 µM): 1.06 | relative viability ([13]; first compound 8 µM): 1.07 | relative viability ([14]; first compound 0.08 µM): 0.965 | relative viability ([14]; first compound 0.253 µM): 1 | relative viability ([14]; first compound 0.8 µM): 0.95 | relative viability ([14]; first compound 2.53 µM): 0.884 | relative viability ([14]; first compound 8 µM): 0.971 | relative viability ([15]; first compound 0.08 µM): 0.784 | relative viability ([15]; first compound 0.253 µM): 0.705 | relative viability ([15]; first compound 0.8 µM): 0.777 | relative viability ([15]; first compound 2.53 µM): 0.777 | relative viability ([15]; first compound 8 µM): 0.786 | relative viability ([16]; first compound 0.08 µM): 0.835 | relative viability ([16]; first compound 0.253 µM): 0.827 | relative viability ([16]; first compound 0.8 µM): 0.841 | relative viability ([16]; first compound 2.53 µM): 0.824 | relative viability ([16]; first compound 8 µM): 0.868 | relative viability ([17]; first compound 0.08 µM): 0.799 | relative viability ([17]; first compound 0.253 µM): 0.732 | relative viability ([17]; first compound 0.8 µM): 0.73 | relative viability ([17]; first compound 2.53 µM): 0.683 | relative viability ([17]; first compound 8 µM): 0.819 | relative viability ([18]; first compound 0.08 µM): 0.9 | relative viability ([18]; first compound 0.253 µM): 0.93 | relative viability ([18]; first compound 0.8 µM): 0.91 | relative viability ([18]; first compound 2.53 µM): 0.896 | relative viability ([18]; first compound 8 µM): 0.84 | relative viability ([19]; first compound 0.08 µM): 0.979 | relative viability ([19]; first compound 0.253 µM): 1.17 | relative viability ([19]; first compound 0.8 µM): 1.02 | relative viability ([19]; first compound 2.53 µM): 1.21 | relative viability ([19]; first compound 8 µM): 0.761 | relative viability ([20]; first compound 0.08 µM): 0.965 | relative viability ([20]; first compound 0.253 µM): 1.01 | relative viability ([20]; first compound 0.8 µM): 0.913 | relative viability ([20]; first compound 2.53 µM): 0.88 | relative viability ([20]; first compound 8 µM): 0.918 | relative viability ([21]; first compound 0.253 µM): 0.936 | relative viability ([21]; first compound 0.8 µM): 0.881 | relative viability ([21]; first compound 2.53 µM): 0.89 | relative viability ([21]; first compound 8 µM): 0.946
